Measurements as given in patent publication US4761422A, “(2-amino-4-aryl-thiazole-5-yl)ethanols and their derivatives having diuretic activity and methods for preparing the same” (Lusofarmaco Istituto Lusofarmaco d'Italia SpA, priority 1986, dated 1988).

What was measured:
[1] = Diuretic activity in rat (DA200, dosage causing doubling of the urinary volume), method of Fregnan et al.; assay type: in vivo; details: po, os
Description: The diuretic activity has been determined according to the method by G. B. Fregnan et al., Gazzetta Medica Italiana 128, 384 (1969).
In the Table given hereinbelow the pharmacological data of some of the compounds according to the invention in comparison with thienyl acid are set forth.
*Dosage causing doubling of the urinary volume

[2] = Acute toxicity in rat (DL50); details: in vivo, ip

SMILES: Nc1nc(-c2ccc(Cl)cc2)c(CCO)s1 [LR 409, 2-[2-amino-4-(p-chlorophenyl)thiazole-5-yl]ethanol]
- ED (doubling of urinary volume) [1]: 30 mg/kg
- LD50 [2]: 280 mg/kg

SMILES: CCN(CC)c1nc(-c2ccc(Cl)cc2)c(CCO)s1 [LR 440, 2-[2-diethylamino-4-(p-chlorophenyl)thiazole-5-yl]ethanol]
- ED (doubling of urinary volume) [1]: 100 mg/kg
- LD50 [2]: > 1000 mg/kg

SMILES: CCN(CC)c1nc(-c2ccc(Cl)cc2)c(CCOC(N)=O)s1 [LR 525, 2-[2-diethylamino-4-(p-chlorophenyl)thiazole-5-yl]ethanol carbamate]
- ED (doubling of urinary volume) [1]: 3 mg/kg
- LD50 [2]: > 2000 mg/kg

SMILES: NC(=O)NC(=O)OCCc1sc(N)nc1-c1ccc(Cl)cc1 [LR 856]
- ED (doubling of urinary volume) [1]: 5 mg/kg
- LD50 [2]: > 1000 mg/kg

SMILES: CNc1nc(-c2ccc(Cl)cc2)c(CCO)s1 [LR 861, 2-[2-methylamino-4-(p-chlorophenyl)thiazole-5-yl]ethanol]
- ED (doubling of urinary volume) [1]: 100 mg/kg
- LD50 [2]: 750 mg/kg

SMILES: NC(=O)OCCc1sc(N)nc1-c1ccc(Cl)cc1 [LR 890, 2-[2-amino-4-(p-chlorophenyl)thiazole-5-yl]ethanol carbamate]
- ED (doubling of urinary volume) [1]: 3 mg/kg
- LD50 [2]: > 2000 mg/kg

SMILES: CNc1nc(-c2ccc(Cl)cc2)c(CCOC(N)=O)s1 [LR 892, 2-[2-methylamino-4-(p-chlorophenyl)thiazole-5-yl]ethanol carbamate]
- ED (doubling of urinary volume) [1]: 10 mg/kg
- LD50 [2]: > 1000 mg/kg

SMILES: O=C(O)COc1ccc(C(=O)c2cccs2)c(Cl)c1Cl [Thienyl acid, reference compound]
- ED (doubling of urinary volume) [1]: 100 mg/kg
- LD50 [2]: 350 mg/kg
